{"source": "paper PMC11236999", "about": "“Antagonism of propofol anesthesia by alkyl-fluorobenzene derivatives” (Scientific Reports, 2024)", "key": {"[1]": {"system": "5 dpf larval zebrafish", "experiment": "Zebrafish behavioral model of anesthesia, elicited movement (EM, tap stimulus)", "format": "in vivo", "conditions": "for Antagonism of propofol via EM: screen", "experimental": "(§1) Figure 2 Screening of PFAL compounds for antagonism of anesthesia. PFAL compounds were screened in 5 dpf zebrafish for their ability to antagonize the anesthetic effects of propofol (panels a, b, c and d) as well as sevoflurane and isoflurane (panels e and f). Each dot represents the data collected from one fish. Spontaneous movement (SM) is the distance of spontaneous swimming in a 4 min period, and elicited movement (EM) is distance moved in 1 s after exposure to a tap stimulus. Both measures were scaled to same-day DMSO controls. […] Mean and 95% CI are shown for each data set. Statistical comparison with both DMSO (D) only (black asterisks) and anesthetic control (Ctrl, gray asterisks) groups are shown. Note that each DMSO comparison is to the DMSO only control (sample on the furthest left of each graph, and the anesthetic control comparisons are made within each anesthetic grouping as indicated by the bars along the x-axis of each graph. ns: P > 0.05, *: P ≤ 0.05, **: P ≤ 0.01, ***: P ≤ 0.001, ****: P ≤ 0.0001).\n(§2) Behavioral experiments (screening, EC50 curves) were performed as previously reported. Antagonism after induction was conducted in a similar manner with different timepoints and solution changes as indicated. The DanioVision Observation Chamber (Noldus) and Ethovision XT16 software were used to track and record (1280 × 960 resolution at 25 frames per second) larval zebrafish (5 dpf) movement in glass 96-well plates (Zissner North America 3,600,500). All experiments were performed at 28 °C with the DanioVision Temperature Control Unit. Zebrafish were allowed to equilibrate in E3 and 2% DMSO (with or without drug) for 10 min before being placed in the observation chamber for 22 min of recording. Two different endpoints were used to assess depth of anesthesia: spontaneous movement (SM) and elicited movement (EM). In these measures, fish movement was considered to be non-anesthetized. During each observation, fish were given time to acclimate to the chamber, and minutes 15–19 of the recording were used for analysis of SM. An EM response using the Daniovision tapping device (8 out of 8 intensity, movement response measured for 1 s after stimulus) was also measured at the end of the SM observation period. All recordings were scrutinized by a blind observer for technical errors in tracking to ensure accuracy of zebrafish detection and inaccurate tracking was excluded from further analysis. Toxicity was measured in separate experiments by exposing larvae to compounds for 30 min, transferring to fresh E3, and then observing mortality after exposure. […]"}, "[2]": {"system": "5 dpf larval zebrafish", "experiment": "Zebrafish behavioral model of anesthesia, spontaneous movement (SM)", "format": "in vivo", "conditions": "for Antagonism of propofol via SM: screen; for Spontaneous movement (SM), compound alone: PFAL compound alone at 10 and 30 μM, versus DMSO control; for Antagonism of propofol via SM at 5 μM propofol: propofol 5 μM", "experimental": "as §1, §2"}, "[3]": {"system": "5 dpf zebrafish", "experiment": "Antagonism of anesthesia after induction (sequential addition)", "format": "in vivo", "conditions": "propofol 3 μM for 10 min, then propofol 3 μM plus 30 μM compound", "experimental": "In the above studies, the anesthetic and PFAL compounds were co-administered to the fish simultaneously.\nFigure 5 Further Characterization of Propofol Antagonism with Compounds 9 and 10. a and b 5 dpf zebrafish (n = 36) were first anesthetized with 3 μM propofol and then 30 μM of either compound 9 or 10 was added. Between minutes 5 and 10 there is a small gap in the data during which the propofol solution was removed and a solution containing propofol and PFAL compound was added. […] The mean and 95% CI is shown for each data point in all panels.\nBehavioral experiments (screening, EC50 curves) were performed as previously reported. Antagonism after induction was conducted in a similar manner with different timepoints and solution changes as indicated. The DanioVision Observation Chamber (Noldus) and Ethovision XT16 software were used to track and record (1280 × 960 resolution at 25 frames per second) larval zebrafish (5 dpf) movement in glass 96-well plates (Zissner North America 3,600,500). […] An EM response using the Daniovision tapping device (8 out of 8 intensity, movement response measured for 1 s after stimulus) was also measured at the end of the SM observation period. […] Toxicity was measured in separate experiments by exposing larvae to compounds for 30 min, transferring to fresh E3, and then observing mortality after exposure."}, "[4]": {"target": "T1, horse spleen apoferritin (HSAF) (Equus caballus, UniProt P02791)", "T1 construct": "model protein HSAF (horse spleen apoferritin); purchased Sigma-Aldrich; host or cells: horse spleen (tissue-derived)", "T1 sequence (P02791 2-175 limits assumed)": "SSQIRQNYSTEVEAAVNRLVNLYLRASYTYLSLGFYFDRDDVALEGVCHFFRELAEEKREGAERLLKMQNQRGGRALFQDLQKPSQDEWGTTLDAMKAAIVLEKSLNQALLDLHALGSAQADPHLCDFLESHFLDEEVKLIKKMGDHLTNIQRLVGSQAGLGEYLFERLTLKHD", "experiment": "1-Aminoanthracene (1-AMA) competition fluorescence assay", "format": "binding"}, "[5]": {"experiment": "HPLC concentration of volatile anesthetics in sealed glass 96-well plates over time", "format": "physicochemical", "conditions": "3M 300LSE adhesive seal, 3-hour mark", "experimental": "Behavioral Experiments with Volatile Anesthetics. Solutions of inhaled volatile anesthetics were stored in glass vials with minimal head space and were transferred utilizing Hamilton gas-tight syringes to prevent evaporative loss. Isoflurane (Primal Care) was stored at 4°C, and sevoflurane (AbbVie Inc.) was stored at -20°C. Solutions were made in DMSO and then diluted in glass scintillation vials to the desired experimental concentrations in E3 (embryo water). Each vial contained 22 mL of E3 which minimized head space to prevent drug loss. Vials were sealed quickly after addition of volatile anesthetics to minimize loss. Solutions were mixed via vortexing, and anesthetics dissolved readily in the final DMSO concentration of 2%. […]\nhave a significant change in zebrafish behavior. To assure consistent concentration of volatile anesthetic, this experiment was repeated without fish and concentrations were measured by HPLC. […]\n1-Aminoanthracene Competition Fluorescence Assay. […] After filtration, the 1-AMA concentration was determined by UV−vis spectroscopy utilizing an experimentally determined extinction coefficient of 1-AMA (Σ368 = 4073 M−1 cm−1).4 Stock solutions of ligand were prepared in DMSO. […] The fluorescence curves were corrected by subtracting contributions from 1-AMA alone and HSAF alone. Fluorescence intensities at 515 nm were plotted as a percentage […]"}, "[6]": {"system": "5 dpf larval zebrafish", "parameters": "method as in PMID 32978423", "conditions": "5 dpf zebrafish, previously determined; read-out: EC50 for SM of the anesthetic; cited from earlier work"}, "[7]": {"system": "5 dpf larval zebrafish", "parameters": "method as in PMID 32978423", "conditions": "5 dpf zebrafish, previously determined; read-out: EC50 for EM of the anesthetic; cited from earlier work"}, "[8]": {"conditions": "at 20°C; no reference given; cited from earlier work"}, "[9]": {"conditions": "10 μM PFAL compound co-administered with propofol"}, "[10]": {"conditions": "30 μM PFAL compound co-administered with propofol (0.3, 1, 5 μM)"}}, "note": "Entries after “also recorded” stand apart in the source; their conditions may differ. Like-named read-outs stand apart in the source and are kept apart here.", "data": [{"smiles": "Cc1ccccc1F", "note": "[Compound 2, 1-methyl-2-fluorobenzene]", "values": [{"measurement": "Antagonism of propofol via EM", "setting": "[1]; [9]", "value": "not to be statistically different than the propofol controls"}]}, {"smiles": "CCc1ccc(CC)c(F)c1", "note": "[Compound 7, 1,4-diethyl-2-fluorobenzene]", "values": [{"measurement": "Antagonism of propofol via SM", "setting": "[2]; [10]", "value": "showed antagonism of propofol; also recorded: statistically significant antagonism"}, {"measurement": "Spontaneous movement (SM), compound alone", "setting": "[2]", "value": "increased SM"}, {"measurement": "Antagonism of propofol via EM", "setting": "[1]; 30 μM PFAL compound co-administered with propofol", "value": "did not antagonize propofol"}]}, {"smiles": "CC(C)c1ccc(C(C)C)c(F)c1", "note": "[Compound 10, 1,4-diisopropyl-2-fluorobenzene]", "values": [{"measurement": "Antagonism of propofol via SM", "setting": "[2]; [9]", "value": "demonstrated antagonism of propofol"}, {"measurement": "Antagonism of propofol via SM at 1 μM propofol", "setting": "[2]; 10 μM PFAL compound, propofol 1 μM", "value": "able to antagonize propofol"}, {"measurement": "Antagonism of propofol via SM at 5 μM propofol", "setting": "[2]; 10 μM PFAL compound", "value": "did not show antagonism"}, {"measurement": "Antagonism of propofol via SM", "setting": "[2]; [10]", "value": "showed antagonism of propofol; also recorded: statistically significant antagonism"}, {"measurement": "Antagonism of propofol via SM at 5 μM propofol", "setting": "[2]; 30 μM PFAL compound", "value": "antagonized propofol"}, {"measurement": "IC50", "setting": "[2]; Danio rerio, 120 h, 5 dpf zebrafish exposed to 3 μM propofol, Fig. 5d, read-out: IC50 (antagonism of propofol)", "value": 25.3, "unit": "µM"}, {"measurement": "Spontaneous movement (SM), compound alone", "setting": "[2]", "value": "increased SM"}, {"measurement": "Increase of propofol EC50 versus propofol alone, spontaneous movement", "setting": "[2]; propofol plus 30 μM compound, Fig. 4a", "value": "~ fourfold"}, {"measurement": "Elicited movement (EM), compound alone", "setting": "[1]; PFAL compound alone at 10 and 30 μM, versus DMSO control", "value": "increased EM"}, {"measurement": "Schild-type analysis with EM", "setting": "[1]; propofol EC50 curves (EM) at various concentrations of the compound, Fig. S6", "value": "no such relationship of antagonism was observed"}, {"measurement": "Reversal of established propofol immobility", "setting": "[3]", "value": "rapid reversal of propofol immobility"}, {"measurement": "Inhibition of 1-AMA binding to HSAF", "setting": "[4]; 15 μM 1-AMA, 15 μM HSAF dimer, ligand 1 to 125 μM", "value": "most potent inhibitors of 1-AMA binding"}, {"measurement": "Shape of IC50 curve for 1-AMA displacement", "setting": "[4]; Fig. 6b", "value": "incomplete inhibition of 1-AMA binding"}]}, {"smiles": "CC(C)(C)c1ccccc1F", "note": "[Compound 11, 1-tertbutyl-2-fluorobenzene]", "values": [{"measurement": "Antagonism of propofol via EM", "setting": "[1]; [9]", "value": "not to be statistically different than the propofol controls"}]}, {"smiles": "CC(C)(C)c1ccc(C(C)(C)C)c(F)c1", "note": "[Compound 13, 1,4-ditertbutyl-2-fluorobenzene]", "values": [{"measurement": "Log(IC50), displacement of 1-AMA from HSAF", "setting": "[4]; Fig. 6a, nb = non-binding", "value": "nb"}]}, {"smiles": "FC(F)OC(Cl)C(F)(F)F", "note": "(centres unmarked) [Isoflurane]", "values": [{"measurement": "Concentration remaining in sealed glass 96-well plate", "setting": "[5]", "value": 96, "unit": "%"}, {"measurement": "EC50", "setting": "[6]", "value": 42, "unit": "µM"}, {"measurement": "EC50", "setting": "[7]", "value": 180, "unit": "µM"}, {"measurement": "Vapor pressure", "setting": "[8]", "value": 238, "unit": "mmHg"}]}, {"smiles": "C1CCc2nnnn2CC1", "note": "[Pentylenetetrazole, pentylenetetrazole, reference compound]", "values": [{"measurement": "Pattern of movement", "setting": "[2]; known epileptogenic comparator", "value": "uncontrolled movement (seizure)"}]}, {"smiles": "CC(C)c1cccc(C(C)C)c1O", "note": "[Propofol]", "values": [{"measurement": "EC50", "setting": "[2]; Danio rerio, propofol alone, Fig. 4a", "value": 0.14, "unit": "µM"}, {"measurement": "EC50", "setting": "[1]; Danio rerio, propofol alone, Fig. 4b", "value": 3.53, "unit": "µM"}, {"measurement": "EC50", "setting": "[6]", "value": 0.1, "unit": "µM"}, {"measurement": "EC50", "setting": "[7]", "value": 3.8, "unit": "µM"}]}, {"smiles": "FCOC(C(F)(F)F)C(F)(F)F", "note": "[Sevoflurane]", "values": [{"measurement": "Concentration remaining in sealed glass 96-well plate", "setting": "[5]", "value": "constant"}, {"measurement": "EC50", "setting": "[6]", "value": 76, "unit": "µM"}, {"measurement": "EC50", "setting": "[7]", "value": 240, "unit": "µM"}, {"measurement": "Vapor pressure", "setting": "[8]", "value": 157, "unit": "mmHg"}]}]}
